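Assay format: 96-well plates, 48-hour exposure. Abbreviation: GI50, concentration required for 50% inhibition of growth.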 Calls of active or inactive are those of the source. No stated cut-off is given here; in the data, active = GI50 up to about 1.1 µM and inactive = higher.
What was measured:
Assay in all cases: DTP human tumour cell line panel, 48 h
SK-MEL-28 = system: SK-MEL-28
UO-31 = system: UO-31
MDA-MB-231 = system: MDA-MB-231
SR = system: SR
HCT-116 = system: HCT-116
SNB-75 = system: SNB-75
MDA-MB-435 = system: MDA-MB-435
DU-145 = system: DU-145
SK-MEL-5 = system: SK-MEL-5
HCC 2998 = system: HCC 2998
CAKI-1 = system: CAKI-1
RPMI-8226 = system: RPMI-8226
SK-MEL-2 = system: SK-MEL-2
NCI/ADR-RES = system: NCI/ADR-RES
A498 = system: A498
A549 = system: A549
OVCAR-4 = system: OVCAR-4
MCF7 = system: MCF7
CCRF-CEM = system: CCRF-CEM
M14 = system: M14

Measured: GI50

Nc1nc(Cl)c(N)c(NCC2(CO)CCCC2)n1
inactive: SK-MEL-28 > 100 µM | UO-31 > 100 µM | MDA-MB-231 > 100 µM | SR > 100 µM | HCT-116 > 100 µM | SNB-75 > 100 µM | MDA-MB-435 80 µM | DU-145 > 100 µM | SK-MEL-5 30.8 µM | HCC 2998 > 100 µM | CAKI-1 > 100 µM | RPMI-8226 > 100 µM | SK-MEL-2 > 100 µM | NCI/ADR-RES > 100 µM | A498 44.7 µM | A549 > 100 µM | OVCAR-4 > 100 µM | MCF7 90.6 µM | CCRF-CEM > 100 µM

CN(C)Cc1cc(/N=N/c2ccccc2Cl)cc(CN(C)C)c1O
inactive: SK-MEL-28 18.5 µM | UO-31 23.3 µM | MDA-MB-231 98.4 µM | SR 45.2 µM | HCT-116 53 µM | SNB-75 56.4 µM | MDA-MB-435 34.4 µM | DU-145 > 100 µM | SK-MEL-5 18.2 µM | HCC 2998 48.2 µM | M14 29.4 µM | CAKI-1 > 100 µM | RPMI-8226 > 100 µM | NCI/ADR-RES 63.7 µM | A498 33.7 µM | A549 77.4 µM | OVCAR-4 60.1 µM | MCF7 > 100 µM | CCRF-CEM 25.6 µM

CC1(C)CC(=O)c2[nH]c3ccccc3c2CC(=O)NCCc2cn1cn2
inactive: SK-MEL-28 > 100 µM | UO-31 > 100 µM | MDA-MB-231 88.1 µM | SR > 100 µM | HCT-116 > 100 µM | SNB-75 > 100 µM | MDA-MB-435 > 100 µM | DU-145 > 100 µM | SK-MEL-5 > 100 µM | HCC 2998 > 100 µM | M14 > 100 µM | CAKI-1 > 100 µM | SK-MEL-2 > 100 µM | NCI/ADR-RES > 100 µM | A498 > 100 µM | A549 > 100 µM | OVCAR-4 > 100 µM | MCF7 > 100 µM

COC(=O)c1ccccc1C1CN=NC12Cc1ccc(C)cc1C2=O (centres undefined)
inactive: SK-MEL-28 67.8 µM | UO-31 34.7 µM | MDA-MB-231 > 100 µM | SR 63.8 µM | HCT-116 38.6 µM | SNB-75 90.6 µM | MDA-MB-435 33.3 µM | DU-145 > 100 µM | SK-MEL-5 38.1 µM | HCC 2998 64.7 µM | M14 65.2 µM | CAKI-1 84.5 µM | RPMI-8226 49.7 µM | SK-MEL-2 28.5 µM | NCI/ADR-RES 36.6 µM | A498 > 100 µM | A549 47.6 µM | OVCAR-4 32.8 µM | MCF7 72.8 µM | CCRF-CEM > 100 µM

CC(=O)NNc1nc(C)c(C(/C=C/c2ccc([N+](=O)[O-])cc2)=N/NC(N)=S)s1
inactive: SK-MEL-28 > 100 µM | UO-31 > 100 µM | MDA-MB-231 > 100 µM | SR > 100 µM | HCT-116 > 100 µM | SNB-75 > 100 µM | MDA-MB-435 > 100 µM | DU-145 > 100 µM | SK-MEL-5 > 100 µM | HCC 2998 > 100 µM | M14 > 100 µM | CAKI-1 > 100 µM | RPMI-8226 > 100 µM | SK-MEL-2 > 100 µM | NCI/ADR-RES > 100 µM | A498 > 100 µM | A549 > 100 µM | OVCAR-4 > 100 µM | MCF7 > 100 µM | CCRF-CEM > 100 µM

O=C1N[C@H]2c3c(Cl)sc(Cl)c3/C(=N/O)[C@H]2O1
inactive: SK-MEL-28 > 100 µM | UO-31 > 100 µM | MDA-MB-231 > 100 µM | SR > 100 µM | HCT-116 80.7 µM | SNB-75 > 100 µM | MDA-MB-435 > 100 µM | DU-145 > 100 µM | SK-MEL-5 > 100 µM | HCC 2998 > 100 µM | M14 > 100 µM | CAKI-1 > 100 µM | RPMI-8226 > 100 µM | SK-MEL-2 > 100 µM | NCI/ADR-RES > 100 µM | A498 > 100 µM | A549 > 100 µM | MCF7 > 100 µM | CCRF-CEM 52.2 µM

CC(=O)NC1C(OCc2ccccc2)OC(CO)C(O)C1OC(C)C(=O)NC(C(=O)N[C@@H](CCC(=O)NCCNCCNc1c2ccccc2nc2cccc([N+](=O)[O-])c12)C(N)=O)C(C)C (some centres undefined)
inactive: SK-MEL-28 41.4 µM | UO-31 21.7 µM | MDA-MB-231 70.6 µM | SR 1.78 µM | HCT-116 19.9 µM | SNB-75 77.4 µM | MDA-MB-435 14.1 µM | DU-145 33 µM | HCC 2998 21 µM | M14 15.4 µM | CAKI-1 30.3 µM | RPMI-8226 17.9 µM | SK-MEL-2 20 µM | NCI/ADR-RES 91.6 µM | A498 41.8 µM | A549 14.8 µM | OVCAR-4 29.2 µM | MCF7 6.7 µM | CCRF-CEM 17.8 µM
